Results as given in patent US20080194695A1, “Pharmaceutical Composition Containing Sibutramine Free Base and Manufacturing Method Thereof” (priority 2005, published 2008).
Structures can show the parent of a compound that is named as a salt. Where two headings read alike, the source gives them in different places.

How the values were obtained:
[1] = background art; cited from earlier work
[2] = Solubility and dissolution as stated in the background art; settings: distilled water and pH 6.8 buffered solution
[3] = Dissolution test, paddle method of the Korean Pharmacopoeia, 50 rpm, capsules with sinker, HPLC; format: physicochemical
Description: Dissolution tests were performed with examples 1˜6, comparative examples 1˜2, sibutramine free base itself and Reductil™ (Abbott Korea Limited) containing 10[…] of sibutramine hydrochloride monohydrate. To keep dissolution test condition similar, the contents of sibutramine in examples and comparative examples were evaluated with the below HPLC analysis condition and then the predetermined amount of examples, comparative examples and sibutramine free base itself were filled in one capsule to make capsules having 8.37[…] of sibutramine free base. These capsules were used in dissolution tests.
500[…] of pH 4.5 buffered solution [2.99 g of Sodium acetate trihydrate and 1.66[…] of acetic acid anhydrous were dissolved in 1 L of distilled water and then pH of the solution was adjusted to pH 4.5±0.05] and 500[…] of pH 6.8 buffered solution [118[…] of 0.2 mol/L NaOH solution was added to 250[…] of 0.2 mol/L […], and then distilled water was added to make the solution 1000[…]] were used as dissolution media. Paddle method of dissolution test of the Korean Pharmacopoeia was used and paddle was rotated at 50 rpm. Dissolution test was performed for 45 minutes and sinker was also used.
For HPLC analysis, mixture (350:640:10) of acetonitrile, water and tetrahydrofuran was used as mobile phase and ion pair reagent PIC B5 (Low UV) was added to the mobile phase to adjust retention time of peak, and then pH was adjusted to 3.0 with phosphoric acid. Wavelength for determination was 229[…] and flow rate was 1.5[…]/min and injection volume was 20[…].
Results were shown as percent (%) of sibutramine dissolved into dissolution media from test samples compared to the total amount of sibutramine contained in each sample.

[4] = Hygroscopicity and storage stability of the drug substance as stated in the background art; settings: during storage
[5] = as said in U.S. Pat. No. 6,900,245; cited from earlier work

SMILES	hygroscopicity in words [1]	solubility in words [2]	percent of sibutramine dissolved into dissolution media ([3]; distilled water, 15 min)	percent of sibutramine dissolved into dissolution media ([3]; distilled water, 30 min)	percent of sibutramine dissolved into dissolution media ([3]; distilled water, 45 min)	percent of sibutramine dissolved into dissolution media ([3]; pH 4.5 buffered solution, 15 min)	percent of sibutramine dissolved into dissolution media ([3]; pH 4.5 buffered solution, 30 min)	percent of sibutramine dissolved into dissolution media ([3]; pH 4.5 buffered solution, 45 min)	dissolution in words ([3]; pH 6.8 buffered solution)	percent of sibutramine dissolved into dissolution media ([3]; pH 6.8 buffered solution, 15 min)	percent of sibutramine dissolved into dissolution media ([3]; pH 6.8 buffered solution, 30 min)	percent of sibutramine dissolved into dissolution media ([3]; pH 6.8 buffered solution, 45 min)	storage stability in words [4]	solubility in words [5]
CC(C)CC(N(C)C)C1(c2ccc(Cl)cc2)CCC1.Cl (stereo not drawn) [sibutramine hydrochloride anhydrous]	highly hygroscopic	–	–	–	–	–	–	–	–	–	–	–	–	–
CC(C)CC(N(C)C)C1(c2ccc(Cl)cc2)CCC1 (stereo not drawn) [Sibutramine free base, N,N-dimethyl-1-[1-(4-chlorophenyl)-cyclobutyl]-3-methylbutylamine]	–	does not almost dissolve	0%	0%	0%	62%	80%	88%	did not practically dissolve	0%	0%	0%	may become sticky gel phase during storage	–
CC(C)CC(N(C)C)C1(c2ccc(Cl)cc2)CCC1 (stereo not drawn) [sibutramine hydrochloride monohydrate]	non-hygroscopic	–	–	–	–	–	–	–	–	–	–	–	–	insufficient
